# Test results: patent publication US7585519B2, “Esters of L-carnitine or alkanoyl L-carnitines useful as cationic lipids for the intracellular delivery of pharmacologically active compounds” (Sigma-Tau Industrie Farmaceutiche Riunite S.p.A., priority 1999, dated 2009)
# “And” between values parts separate entries of the source, which are not always exact repeats. Equal entries are not always repeated.
# What was measured:
# HeLa cells = details: liposome 9 μM, 2.5 μg plasmid DNA, versus DOTAP, FIGS. 1 and 2
# Experimental: Liposome and plasmid DNA were suitably diluted separately in PBS. The DNA was then added to the liposome and the liposome-DNA complex was left for approximately 30 min at 4° C. to facilitate the formation of a stable liposome-DNA interaction.
# In the in-vitro experiments, 1,2-dioleoyloxy-3-trimethyl-ammonium propane (DOTAP) was used as a reference cationic lipid; 2.5 μg of plasmid DNA were used per 2×10^5 HeLa cells, and the liposome concentration was 9 μM.
# 5 μg of the DNA extracted from the cells were preabsorbed on nylon filters (Boehringer) using the Biorad dot-blot appliance. The filters were then prehybridised for 4 hours at 65° C. with a solution containing 0.5 M of sodium pyrophosphate (NaPi), 1 mM EDTA, 7% SDS. […] The autoradiographic analysis was carried out with the aid of a phosphor imager which uses phosphor screens activated by beta-radiation which are read and quantified by means of a photomultiplier system in conjunction with an image analysis program. […]
# As an alternative, the transfection efficiency of a number of cationic liposomes was evaluated by means of densitometric analysis (phosphor imager) of samples of DNA extracted from transfected cells preabsorbed on nitrocellulose filters (dot-blot) and hybridised with ^32P-labelled plasmid DNA markers, as described previously.
# [1] = test system: murine pulmonary carcinoma M109
# Experimental: To induce the tumour in vivo, unanaesthetised Balb/c mice received injections of 3×10^5 cells of murine pulmonary carcinoma M109 in 0.1 ml RPMI-1640 (Sigma) in the quadriceps femoris of the right rear paw.
# Taxol (paclitaxel INDENA) used as a control was dissolved in the cremophor vehicle EL (BASF) at a concentration of 20 mg/mL and stored at +4° C. for the next 24 hours, protected against the light. At the time of use, it was diluted with phosphate-buffered saline solution (PBS, SIGMA) and injected intravenously in the same volume and concentration conditions as described for taxol transported by the ST 983 liposome.
# The cremophor was prepared by diluting 1:1 with ethyl alcohol.
# Administrations were given for seven consecutive days starting from day 10 after inoculation of the tumour. The animals were kept under observation up to day 17 post-inoculation and sacrificed by cervical dislocation, and their lungs were removed for determination of the number of metastases. Staining of the lungs to detect metastases was done by incubating the lungs for 10 days in 5 ml of Bouin's solution, consisting of 71% saturated picric acid solution, 4.8% glacial acetic acid (Merck), and 24% 10% formaldehyde (Fluka). At the end of the incubation period in Bouin's solution, the numbers of metastases were counted.
# Statistical analysis of the data for the number of lung metastases was done using the Mann-Whitney non-parametric tests for unpaired data.
# M109 cells = assay: In-vitro cytotoxicity test (sulforhodamine B, SRB); type: cell-based, murine; details: for optical density reading at 540 nm (Mean): Table 2.3; for optical density reading at 540 nm (single reading): Table 2.3, listed as DMSO-CPT 83
# Experimental: The toxicity assays were done on HeLa and M109 cells in 96-well plates. On the day after plating, the cells were treated with the molecules being tested for the next 48 hours. The cells were then washed with PBS and left in normal growth conditions for 48 hours. After removal of the growth medium, the cells were incubated on ice with 16% TCA, washed 3 times in H2O, treated for 30 minutes with sulforhodamine B (SRB) in 1% acetic acid, washed 3 times in 1% acetic acid alone, incubated for 20 minutes in TRIS 10 mM pH 10.5 and, lastly, readings were taken at 540 nm. To evaluate the ability of the liposome to transport CPT 83 in vitro in M109 cells the sulforhodamine B test described above was used. In addition, the cytotoxicity of CPT 83 dissolved in dimethyl-sulphoxide (DMSO) was also evaluated as compared to that of the same molecule complexed with the ST 983 liposome. The liposome-CPT 83 complex was used in the cytotoxicity assays at the concentrations indicated in Tables 2.1, 2.2 and […] here below in both the SUV and MLV configurations. The liposome:CPT 83 molar ratio used was 40:1.
# [2] = test system: luciferase gene of pCMVluc plasmid in liver, lung and heart; assay: In-vivo plasmid DNA transfection test (luciferase activity in tissues); parameters: species or system Balb/c mice; details: molar ratio 12:1
# [3] = test system: luciferase gene of pCMVluc plasmid in liver, lung and heart; assay: as above; parameters: species or system Balb/c mice
# Experimental: In the in-vivo experiments, both DOTAP and [2,3-(dioleoyl)propyl]trimethylammonium (DOTMA) were used as reference cationic lipids.
# The molar ratios defined in the results refer to nmol concentrations of the respective cationic lipids per […] of DNA.
# In the in-vivo transfection experiments, 25 μg of plasmid DNA per animal were used.
# The plasmid pCMVluc used in these experiments contained the cDNA of the luciferase gene under the transcriptional control of the cytomegalovirus (CMV) promoter.
# Protein luciferase activity in cells and tissues was determined using the Boehringer Mannheim kit (cat no. 1669 893).
# The cells were washed 3 times in PBS and then removed from the plate with a scraper in lysis buffer (100 mM potassium phosphate pH 7.8. 1 mM dithiothreitol-DTT) and submitted to three consecutive cycles of freezing and thawing. After centrifuging in 1.5 mL Eppendorf tubes, the supernatant was used for the luminescence test not more than 5 hours after extraction of the proteins. Luminescence emission measurements were done using a luminometer at 562 nm. After a first freezing in liquid N2 followed by fine crushing to obtain a powder, the tissues were resuspended in lysis buffer and incubated for 10-15 min in ice.
# The samples were then centrifuged in 2 ml Eppendorf tubes and the supernatant was tested for luciferase activity.
# Both DOTAP and DOTMA were used as reference cationic lipids, the transfection capacity of which has been amply characterised and described by Abkenet et al., Proc. Natl. Acad. Sci. USA 1993, 90, 6518. In the in-vivo experiments, various different molar ratios of cationic lipids to plasmid DNA were analysed for the purposes of determining the activity of the cationic lipids and the respective most efficient concentrations for gene transfer. The transfection capability of the various liposomes was evaluated both in vitro and in vivo using the luciferase gene […] contained in the pCMVluc plasmid, the activity of which, in terms of relative luminescence units (RLU) (described previously) made for easy quantification.
# In this experiment, the dependence of liver, lung and heart transfection efficiency on the ST 983 liposome:plasmid DNA molar ratio was evaluated. The following nmol ratios of liposome per μg DNA were tested: 12:1, 24:1, 36:1 and 48:1.
# Groups of 6 Balb/c mice weighing approximately 20 g were treated intravenously with the above-mentioned amounts of liposome-DNA complex in 200 μl volumes of PBS and were sacrificed 24 hours after administration of the complex.
# [4] = liposome/DNA preincubation time 30 min.
# [5] = liposome/DNA preincubation time 3 h
# [6] = ST 983:DNA molar ratio 24:1, i.v., 24 hours
# [7] = ST 983:DNA molar ratio 36:1, i.v., 24 hours
# [8] = ST 983:DNA molar ratio 48:1, i.v., 24 hours
# [9] = liposome:DNA molar ratio 12:1, i.v., 24 hours
compound,measurement,setting,value
"ester of propionyl L-carnitine bromide with 2-hydroxy acetyl 1,3 dipalmitoyl glycerol [ST 772]",amounts of plasmid DNA in transfected cells (blot analysis),HeLa cells,same order of magnitude as obtained with DOTAP
"CC(=O)O[C@H]1C(=O)[C@@]2(C)[C@H]([C@H](OC(=O)c3ccccc3)[C@]3(O)C[C@H](OC(=O)[C@H](O)[C@@H](NC(=O)c4ccccc4)c4ccccc4)C(C)=C1C3(C)C)[C@]1(OC(C)=O)CO[C@@H]1C[C@@H]2O [Taxol, paclitaxel]",effect on pulmonary metastases compared to untreated control mice,"[1]; M109, Balb/c mice, i.v.",no reducing effect on the number of pulmonary metastases
same,metastases size,"[1]; lung metastases at 17th day after M109 inoculation, BALB/c mice",S (S = small (<1 mm diameter))
same,metastases Mean ± s.d,"[1]; lung metastases at 17th day after M109 inoculation, BALB/c mice, i.v. for seven consecutive days from day 10",22 ± 9
"CC[C@@]1(O)C(=O)OCc2c1cc1n(c2=O)Cc2c-1nc1ccccc1c2C#N [CPT 83, 7-carbonitrile camptothecin]",optical density reading at 540 nm (Mean),M109 cells; 0.0013 μM,0.8399
same,optical density reading at 540 nm (single reading),M109 cells; 0.0013 μM,0.863 and 0.795 and 0.831 and 0.878 and 0.809 and 0.816 and 0.886 and 0.841
same,optical density reading at 540 nm (Mean),M109 cells; 0.013 μM,0.82
same,optical density reading at 540 nm (single reading),M109 cells; 0.013 μM,0.851 and 0.79 and 0.806 and 0.81 and 0.8 and 0.804 and 0.863 and 0.836
same,optical density reading at 540 nm (Mean),M109 cells; 0.13 μM,0.4446
same,optical density reading at 540 nm (single reading),M109 cells; 0.13 μM,0.474 and 0.467 and 0.429 and 0.421 and 0.406 and 0.407 and 0.57 and 0.383
same,optical density reading at 540 nm (Mean),M109 cells; 1.3 μM,0.309
same,optical density reading at 540 nm (single reading),M109 cells; 1.3 μM,0.318 and 0.317 and 0.328 and 0.305 and 0.33 and 0.302 and 0.285 and 0.287
same,optical density reading at 540 nm (Mean),M109 cells; 13 μM,0.2921
same,optical density reading at 540 nm (single reading),M109 cells; 13 μM,0.285 and 0.288 and 0.312 and 0.318 and 0.281 and 0.267 and 0.3 and 0.286
"CCCCCCCCCCCCCCCC(=O)O[C@H](CC(=O)OCCCCCCCCCCC)C[N+](C)(C)C.[Cl-] [ST 983, palmitoyl L-carnitine chloride undecyl ester]",Mean RLU/mg protein ± s.d. heart,[2]; [4],8118 +/− 263 RLU/mg protein
same,Mean RLU/mg protein ± s.d. liver,[2]; [4],3526 +/− 260 RLU/mg protein
same,Mean RLU/mg protein ± s.d. Lung,[2]; [5],4225656 +/− 211731 RLU/mg protein
same,Mean RLU/mg protein ± s.d. heart,[2]; [5],37100 +/− 1853 RLU/mg protein
same,Mean RLU/mg protein ± s.d. Lung,[3]; [6],2257856 +/− 280480 RLU/mg protein
same,Mean RLU/mg protein ± s.d. heart,[3]; [6],7091 +/− 249 RLU/mg protein
same,Mean RLU/mg protein ± s.d. liver,[3]; [6],1310 +/− 385 RLU/mg protein
same,Mean RLU/mg protein ± s.d. Lung,[3]; [7],301107 +/− 21503 RLU/mg protein
same,Mean RLU/mg protein ± s.d. heart,[3]; [7],8351 +/− 477 RLU/mg protein
same,Mean RLU/mg protein ± s.d. liver,[3]; [7],1035 +/− 347 RLU/mg protein
same,Mean RLU/mg protein ± s.d. Lung,[3]; [8],112747 +/− 5655 RLU/mg protein
same,Mean RLU/mg protein ± s.d. heart,[3]; [8],5251 +/− 489 RLU/mg protein
same,Mean RLU/mg protein ± s.d. liver,[3]; [8],1571 +/− 156 RLU/mg protein
same,"share of the total luciferase extracted from lung, heart and liver located in the lungs",[3]; all molar ratios analysed,approximately 99%
same,Mean RLU/mg protein ± s.d. Lung,"[3]; liposome/DNA preincubation time 30 min., molar ratio 12:1",874882 +/− 65917 RLU/mg protein
same,Mean RLU/mg protein ± s.d. liver,"[3]; liposome/DNA preincubation time 3 h, molar ratio 12:1",2497 +/− 682 RLU/mg protein
same,Mean RLU/mg protein ± s.d. Lung,[3]; [9],8818442 +/− 449529 RLU/mg protein
same,Mean RLU/mg protein ± s.d. heart,[3]; [9],28875 +/− 2593 RLU/mg protein
same,Mean RLU/mg protein ± s.d. liver,[3]; [9],2589 +/− 140 RLU/mg protein
same,in-vivo plasmid DNA transport efficiency compared with DOTMA,"[3]; lung, molar ratio 12:1",efficiency ratings higher than and/or comparable to those of DOTMA
same,"increase in luciferase activity in the lung and heart, 3 hours versus 30 minutes preincubation",[3]; molar ratio 12:1,approximately 5 fold
